Assay [1] relates to C. albicans strain SC5341 gene expression. The assay can be described thus: DNA microarray gene expression of C. albicans after BF1 treatment. It is filed as cell-based, Candida albicans. Conditions: for Induction expression ratio: 3 μg/mL BF1, 45 minutes. On the procedure: An overnight culture of C. albicans strain SC5341 grown in SD medium was sub-cultured in 25 mL of the same medium to an initial OD600 of 0.005 and grown till the OD600 was 1.0. The culture was diluted using fresh SD medium to a volume of 100 mL with an initial OD600 of 0.6, and it was grown till the OD600 reached 1.0, which took approximately 2 hours. Then the culture was split into two equal portions, with 3 μg/mL of BF1 added to the first one and the same amount of ethanol added to the second one to eliminate the effects of ethanol. […] Forty-five minutes after BF1 addition, the cells were harvested by centrifugation at 13,200 rpm at 4° C. for 30 sec and stored at −80° C. until RNA isolation. To lyse the cells, 1.5 mL of Trizol reagent (Invitrogen® Co., Carlsbad, Calif.) and 0.5 mL of 0.5 mm glass beads were added to the frozen tubes containing C. albicans cell pellets. The tubes were closed tightly and beaten for 30 sec at 4,800 oscillations/minute using a mini bead beater (Biospec Products Inc., Bartlesville, Okla.). The total RNA was extracted using Trizol reagent by following the manufacture's protocol. The extracted RNA was further cleaned up using an RNeasy mini-kit (QIAGEN® Inc., Valencia, Calif.), including on-column DNA digestion with RNase-free DNase I. The RNA yield was quantified by OD260 reading, and the RNA integrity was checked, using agarose gel electrophoresis. The RNA samples were sent to the DNA MicroArray Lab at the Biotechnology Research Institute, National Research Council of Canada (Montreal, Canada) to further check the integrity and DNA microarray hybridization. RNA from a control sample and that from a furanone-treated sample were hybridized to each array. A total of four DNA microarrays were used and four biological replicates were tested. The data were analyzed using Genespring GX version 7.3 (Agilent Technologies®, Santa Clara Calif.). […] Gene functions were annotated by searching the Candida Genome Database at (www.candidagenome.org).

Assay [2] has as its system C. albicans. The assay can be described thus: C. albicans specific growth rate in a shake flask (data not shown). Conditions: 3 μg/mL, after 3 hours of treatment. It is filed as cell-based, Candida albicans.
The subject of assay [3] is six fungal strains (Gloeophyllum trabeum, Chaetomium globosum, Trametes versicolor). The assay can be described thus: Fungal growth on MEA plates with furanone, statements for all six strains. In kind it is cell-based. To be noted: 1 to 60 μg/mL. On the procedure: This Example examines the effect of brominated furanones on the growth of fungi associated with damage to building material. Six fungal strains were the subject of these experiments; Gloeophyllum trabeum (strains GT598 and GT599), Chaetomium globosum (wildtype strain and CG572), and Trametes versicolor (strains TV7B2-59 and TV57MAD277). The species were developed on 2% Malt-Extract Agar (MEA) plates and stored inverted at 4° C. The stocks were refreshed by streaking new plates every two months.
The brominated and non-brominated furanones were added to MAE agar plates at different concentrations. The brominated furanones were dissolved in either ethanol (“EtOH”) or methanol (“MeOH”) as stock solutions, as shown in Table 5. The non-brominated furanones were purchased from Sigma (St. Louis, Mo.). The furanone stocks were stored at 4° C.
MAE agar plates containing the same amounts of ethanol/methanol were also prepared as negative controls to eliminate any solvent effects. The plates were prepared using either 90 mm or 60 mm petri dishes and were stored inverted at 4° C. until use.
Different concentrations of furanones were studied to compare their antifungal activities. The plates were inoculated with the six fungal strains using a platinum loop and were incubated upside down at 30° C. for 7 days to monitor the growth. The initial screening was performed using a single 60 μg/mL furanone concentration.

Assay [4] deals with C. albicans. Description: C. albicans viability assay based on colony-forming unit (CFU) counting. To be noted: 60 μg/mL, 6 hours in 0.85% NaCl buffer. In kind it is cell-based, Candida albicans. On the procedure:
To further examine the effect of brominated furanones on fungal growth and understand whether BFs are fungicidal agents to C. albicans, BF1 was used as the representative compound in a viability assay based on colony-forming unit (“CFU”) counting. An overnight culture of C. albicans was sub-cultured in 100 mL of SD medium to an initial OD600 of 0.005 and was grown for 24 hours. The cells were then harvested by centrifugation at 4,500 rpm for 5 minutes at room temperature and washed twice with 0.85% NaCl buffer. Then the cells were resuspended in 0.85% NaCl buffer and supplemented with 0, or 60 μg/mL BF1, BF8, BF9, BF10, BF11, BF12, or BF14 to an OD600 of 2.0 using 17×100-mm polystyrene test tubes (Fisher Scientific). After incubation at 30° C. for 6 hours with shaking at 200 rpm, the treated cells were spread on Yeast Extract Peptone Dextrose (YPD) plates containing 20 g/L peptone, 10 g/L yeast extract, 20 g/L dextrose and 15 g/L agar. The colony-forming units (CFUs) on the plates were counted after 24 hours of incubation at 30° C. to evaluate the killing of C. albicans by furanones. Duplicate samples for each furanone were tested and five agar plates were counted for each sample.

`CCCCC1=C(Br)/C(=C/Br)OC1=O` [BF1, 4-bromo-5Z-(bromomethylene)-3-butylfuran-2-one]: the Induction expression ratio in assay [1] (orf19.113 CIP1) came to 3.17; in assay [1] (orf19.1167), 1.65; in assay [1] (orf19.1237 ARO9), 1.87; in assay [1] (orf19.125 EBP1) it was 13.87; in assay [1] (orf19.1286), 1.97; in assay [1] (orf19.1421 DAL3) it was 1.58. For the same compound, the Induction expression ratio is 1.78 in assay [1] (orf19.1783 YOR1); 10.94 in assay [1] (orf19.2175); 2.68 in assay [1] (orf19.2262); 5.01 in assay [1] (orf19.23 RTA3); 2.05 in assay [1] (orf19.2396 IFR2); 3.97 in assay [1] (orf19.2693). In addition, the Induction expression ratio in assay [1] (orf19.2825 DRE2) came to 1.69; in assay [1] (orf19.3131 OYE32), 12.89; in assay [1] (orf19.3139), 8.82; in assay [1] (orf19.320), 14.98; in assay [1] (orf19.3234 OYE22) it was 4.00; in assay [1] (orf19.3340 SOD2) it was 1.72. The Induction expression ratio is 20.04 in assay [1] (orf19.3433 OYE23); 3.30 in assay [1] (orf19.3443 OYE2); 2.65 in assay [1] (orf19.3707 YHB1); 2.57 in assay [1] (orf19.4940 HIP1); 1.96 in assay [1] (orf19.5059 GCS1); 5.36 in assay [1] (orf19.5604 MDR1). The Induction expression ratio in assay [1] (orf19.5992 WOR2) was 1.54; in assay [1] (orf19.6059 TTR2), 1.80; in assay [1] (orf19.6275), 1.94; in assay [1] (orf19.6869), 4.21; in assay [1] (orf19.7306), 2.87; in assay [1] (orf19.7531), 2.53. Further, the Induction expression ratio is listed as 1.54 in assay [1] (orf19.896 CHK1); 1.53 in assay [1] (orf19.93); 0.42 in assay [1] (repressed gene orf19.1097 ALS4); 0.60 in assay [1] (repressed gene orf19.1344); 0.47 in assay [1] (repressed gene orf19.270); 0.60 in assay [1] (repressed gene orf19.2896 SOU1). Besides, the Induction expression ratio in assay [1] (repressed gene orf19.2959.1) is 0.64; in assay [1] (repressed gene orf19.3066 ENG1), 0.57; in assay [1] (repressed gene orf19.3629 DSE1), 0.66; in assay [1] (repressed gene orf19.3794 CSR1) it was 0.60; in assay [1] (repressed gene orf19.4337 ESBP6) it was 0.65; in assay [1] (repressed gene orf19.4737 TPO3) it was 0.60. Moreover, the Induction expression ratio in assay [1] (repressed gene orf19.5170 ENA21) is on record as 0.61; in assay [1] (repressed gene orf19.5193 FMA1), 0.61; in assay [1] (repressed gene orf19.5267), 0.56; in assay [1] (repressed gene orf19.5565), 0.43; in assay [1] (repressed gene orf19.6073 HMX1) it was 0.59; in assay [1] (repressed gene orf19.6077), 0.51. For the same compound, the Induction expression ratio in assay [1] (repressed gene orf19.6245) amounted to 0.67; in assay [1] (repressed gene orf19.716) it was 0.51; in assay [1] (repressed gene orf19.742 ALD6), 0.33; in assay [1] (repressed gene orf19.7502), 0.67; in assay [1] (repressed gene orf19.7586 CHT3), 0.66. Moreover, the “induction of gene CPD1 in DNA microarray” value in assay [1] (orf19.2175 (CPD1), 3 μg/mL BF1) was 12.94 fold. Further, the “reduction of specific growth rate” value in assay [2] was “approximately 50%”. Moreover, in assay [3], the “growth inhibition of the six fungal strains, comparison” value was “effective at preventing growth in low concentrations”.

Consider `O=C1OC(=C(Br)Br)C=C1C(Br)Br` [BF10, 3-(dibromomethyl)-5-(dibromomethylene)furan-2-one], for which, in assay [4], the “reduction of CFU” value was found to be 100%.

Regarding `CC1=C(Br)/C(=C/Br)OC1=O` [BF8, 4-bromo-5Z-(bromomethylene)-3-methylfuran-2-one], the “reduction of CFU” value in assay [4] came to 50%.

(Values after patent publication US8530680B2, “System and method for controlling growth of microorganisms with brominated furanones” (Syracuse University, priority 2008, dated 2013).)
